In ChEMBL document CHEMBL5465560, “Selectivity Literature for EUbOPEN Chemogenomic Library” (2024):
Values belong to the compound of their own block, whether it stands above or below them.

Legend:
[1] = target: T1, Rhodopsin kinase GRK7 (Homo sapiens) (UniProt Q8WTQ7); conditions: at 10 µM
T1 sequence (whole entry): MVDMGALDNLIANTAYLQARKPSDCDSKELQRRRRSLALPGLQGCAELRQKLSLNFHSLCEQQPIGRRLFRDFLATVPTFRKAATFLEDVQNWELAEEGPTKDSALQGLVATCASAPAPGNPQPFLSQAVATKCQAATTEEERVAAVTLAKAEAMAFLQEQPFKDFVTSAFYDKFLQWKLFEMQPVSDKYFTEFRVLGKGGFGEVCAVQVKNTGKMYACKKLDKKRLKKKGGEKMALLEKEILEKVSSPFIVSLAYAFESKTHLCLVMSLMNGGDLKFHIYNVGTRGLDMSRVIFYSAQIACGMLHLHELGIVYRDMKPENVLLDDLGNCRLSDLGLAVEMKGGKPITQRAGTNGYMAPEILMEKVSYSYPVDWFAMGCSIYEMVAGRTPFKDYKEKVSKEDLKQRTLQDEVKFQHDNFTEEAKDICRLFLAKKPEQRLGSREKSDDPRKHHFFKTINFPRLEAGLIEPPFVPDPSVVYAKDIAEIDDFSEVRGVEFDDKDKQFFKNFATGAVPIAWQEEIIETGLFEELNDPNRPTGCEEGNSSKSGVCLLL

[2] = target: T2, Serine/threonine-protein kinase VRK1 (Homo sapiens) (UniProt Q99986); assay: Selectivity interaction (ProQinase) EUB0000171b VRK1
T2 sequence (whole entry): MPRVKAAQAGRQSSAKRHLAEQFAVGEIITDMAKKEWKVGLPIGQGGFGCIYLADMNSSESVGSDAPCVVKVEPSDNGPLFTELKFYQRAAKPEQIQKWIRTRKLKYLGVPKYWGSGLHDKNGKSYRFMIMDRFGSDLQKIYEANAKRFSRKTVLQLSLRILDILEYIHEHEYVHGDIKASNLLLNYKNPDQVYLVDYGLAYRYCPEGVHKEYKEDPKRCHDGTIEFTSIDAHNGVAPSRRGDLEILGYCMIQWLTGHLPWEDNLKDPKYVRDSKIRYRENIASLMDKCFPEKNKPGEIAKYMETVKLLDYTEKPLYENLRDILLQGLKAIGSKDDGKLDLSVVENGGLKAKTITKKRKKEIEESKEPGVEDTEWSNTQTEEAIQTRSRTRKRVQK

[3] = target: T3, Ephrin type-A receptor 8 (Homo sapiens) (UniProt P29322); assay: Selectivity interaction (Upstate Kinase Profiler service (Millipore)) EUB0000056c EPHA8; conditions: at 1 µM
T3 sequence (whole entry): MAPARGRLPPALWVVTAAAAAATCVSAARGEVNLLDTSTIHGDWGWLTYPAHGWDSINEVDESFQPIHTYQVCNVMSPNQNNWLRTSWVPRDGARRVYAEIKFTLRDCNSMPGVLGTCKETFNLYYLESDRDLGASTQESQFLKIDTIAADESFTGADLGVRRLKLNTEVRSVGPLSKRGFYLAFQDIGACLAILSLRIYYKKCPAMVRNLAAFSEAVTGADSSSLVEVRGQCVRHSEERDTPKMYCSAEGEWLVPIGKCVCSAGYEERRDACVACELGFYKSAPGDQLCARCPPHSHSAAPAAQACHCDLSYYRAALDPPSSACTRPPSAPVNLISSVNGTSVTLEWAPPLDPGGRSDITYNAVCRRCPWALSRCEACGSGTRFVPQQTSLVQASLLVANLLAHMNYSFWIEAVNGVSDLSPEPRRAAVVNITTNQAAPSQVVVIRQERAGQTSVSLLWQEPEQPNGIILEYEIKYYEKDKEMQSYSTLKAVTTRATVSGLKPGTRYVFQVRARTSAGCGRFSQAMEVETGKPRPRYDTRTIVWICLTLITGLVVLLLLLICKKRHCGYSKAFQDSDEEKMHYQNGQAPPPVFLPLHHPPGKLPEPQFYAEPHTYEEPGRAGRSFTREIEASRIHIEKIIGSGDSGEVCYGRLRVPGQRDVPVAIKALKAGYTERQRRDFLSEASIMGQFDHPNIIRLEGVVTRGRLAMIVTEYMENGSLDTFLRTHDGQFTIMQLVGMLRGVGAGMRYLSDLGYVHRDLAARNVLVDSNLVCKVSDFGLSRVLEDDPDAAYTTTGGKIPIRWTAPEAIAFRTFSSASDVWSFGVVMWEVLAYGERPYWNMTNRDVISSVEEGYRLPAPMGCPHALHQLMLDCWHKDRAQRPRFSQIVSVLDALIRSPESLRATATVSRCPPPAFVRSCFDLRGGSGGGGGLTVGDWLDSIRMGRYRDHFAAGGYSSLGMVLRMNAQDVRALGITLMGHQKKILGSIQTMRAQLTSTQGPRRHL

[4] = target: T4, Activin receptor type-1 (Homo sapiens) (UniProt Q04771); assay: Selectivity interaction (KinomeScan (DiscoverX)) EUB0000045b ACVR1
T4 sequence (whole entry): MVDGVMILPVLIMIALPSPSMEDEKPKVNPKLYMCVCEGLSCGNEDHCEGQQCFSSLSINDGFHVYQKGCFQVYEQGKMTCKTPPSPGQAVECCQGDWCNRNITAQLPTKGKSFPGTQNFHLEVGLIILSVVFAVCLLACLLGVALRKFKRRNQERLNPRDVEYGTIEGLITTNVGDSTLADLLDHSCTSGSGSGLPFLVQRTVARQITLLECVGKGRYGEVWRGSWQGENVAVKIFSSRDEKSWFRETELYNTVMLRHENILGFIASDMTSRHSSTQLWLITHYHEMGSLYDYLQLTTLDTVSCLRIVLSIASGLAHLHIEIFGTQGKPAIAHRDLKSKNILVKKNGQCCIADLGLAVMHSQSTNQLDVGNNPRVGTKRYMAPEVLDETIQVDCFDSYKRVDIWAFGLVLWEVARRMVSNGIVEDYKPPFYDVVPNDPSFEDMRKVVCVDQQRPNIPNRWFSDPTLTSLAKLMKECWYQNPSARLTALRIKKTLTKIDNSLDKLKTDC

Structure (SMILES): Cc1cc([C@@H](C)Nc2ccccc2C(=O)O)c2nc(N3CCOCC3)cc(=O)n2c1 [AZD-6482]
% of control [1]: 57%

% of control ([2]; at 1 µM): 95%
% of control ([2]; at 5 µM): 97%
Structure (SMILES): C=CC(=O)Nc1cccc(C(=O)Nc2ccc(Nc3cc(-c4[nH]c(SC)nc4C)ccn3)cc2)c1

% of inhibition [3]: 1%
Structure (SMILES): Cc1ccc(-c2ccc3c(ccc4sc5c(c43)NC[C@@H](C)NC5=O)n2)cn1

Structure (SMILES): C=CC(=O)Nc1cc(-n2c(=O)ccc3cnc4ccc(-c5ccc(NS(C)(=O)=O)cc5)cc4c32)ccc1C
% of control ([4]; at 1 µM): 100%
% of control ([4]; at 10 µM): 59%
